Measurements published in publication PMC10245146, “CNS4 causes subtype‐specific changes in agonist efficacy and reversal potential of permeant cations in NMDA receptors” (Pharmacology Research & Perspectives, 2023).

Tests used:
GluN1/2AB receptors = assay: Whole-cell patch-clamp, HEK293T cells expressing recombinant GluN1/2AB; type: cell-based; details: 100 μM CNS4 applied 4 s before and with 100 μM glutamate + 100 μM glycine; agonist alone −546 ± 32.34 pA; n = 8(4), p = .023
Experimental: Whole‐cell patch‐clamp electrophysiology studies were carried out in HEK‐293T cells expressing recombinant NMDA receptors that lack native functional NMDA receptors.[29], [30], [31] An equal quantity of (1 μg) cDNA for GluN1a, GluN2 subunits were co‐transfected 24‐48 h before patch‐clamp electrophysiology assay. […] Cells were carefully washed before performing experiments and were used for the electrophysiology experiments after 24 to 48 h incubation at 37°C with 5%CO2. The whole‐cell patch‐clamp electrophysiology assay was performed using semi‐automated patch‐clamp equipment, Port‐a‐Patch (Nanion Technologies GmbH). Following are the constituents of various solutions used for patch‐clamp electrophysiology: internal solution ([mM] NaCl 10, EGTA 20, CsF 110, HEPES 10), Mg‐free external (recording) solution ([mM] NaCl 140, KCl 4, CaCl2 2, HEPES 10, D‐GlucoseMonohydrate 5), and Mg‐free seal enhancer solution ([mM] NaCl 80, KCl 3, CaCl2 35, HEPES 10). Nanion NPC chips with […] resistance were used for the HEK‐293T cell recordings.
FIGURE 1 CNS4 sensitizes ambient concentration of agonists in GluN2 subunit dependent manner. […] Statistical significance was calculated from the Wilcoxon matched‐pairs signed rank test, except the comparison between 1/2A & 1/2AB CNS4 with no agonist data, which was done by unpaired t‐test. […]

GluN1/2D NMDA receptors = target: T1, GluN1/2D NMDA receptors (UniProt O15399+P35439); assay: Current-voltage (I-V) relationship, Xenopus oocytes expressing 1/2D; type: cell-based; details: for Difference in reversal potential (∆Erev) between W and WO CNS4: 100 μM CNS4; for Reversal potential (Erev): with 100 μM CNS4
T1 construct: host or cells: Xenopus oocytes (cRNA injection)
Experimental: There are two sets of recording solutions used for the I‐V assay: solutions with normal (1) and low (2) Ca^2+ concentrations. The normal Ca^2+ solutions contained (mM): 115 NaCl, 1 KCl, 1.8 CaCl2, 10 HEPES. PH was adjusted to 7.2. Low calcium solutions contained 0.018 mM CaCl2 and other components were the same as normal Ca^2+ solution. To study the effects of CNS4 in the absence of extracellular Na^+, NaCl was replaced with impermeable agent, N‐methyl‐D‐glucamine (NMDG, […]). HCl was used to dissolve the NMDG and to adjust the PH to 7.2. NMDG‐containing solutions are termed Nafree. […] There were four different agonist solutions used for each set of Ca^2+ recordings: (1) Agonist, (2) Agonist+CNS4, (3) Agonist in Nafree solution, (4) Agonist+CNS4 in Nafree solution. Each solution was applied to the oocytes in sequential order and the same order was followed for all I‐V recordings. Low Ca^2+ experiments were carried out in the same way as normal Ca^2+ experiments, except that they had 0.018 mM Ca^2+ in all four agonist and recording solutions. Steady state current responses evoked by these solutions at each voltage step were measured. Reversal potentials (Erev) were obtained from x‐intercept values when y = 0 after fitting the I‐V data using a third order polynomial, non‐linear curve fitting equation Y=B0+B1^*X+B2^*X^2+B3^*X^3 . Erev obtained from each oocyte with different agonists were compared in a pairwise manner. These differences were then averaged. Paired or unpaired student t‐test was performed to compare the data as mentioned in each figure legend.
FIGURE 6 Effect on CNS4 on agonist induced current directions in 1/2D receptors. Current –Voltage (I‐V) relationship of 1/2D receptors was studied with normal (A) and low (B) CaCl2 containing extracellular solutions. […] Dark and light green circles indicate normal and low CaCl2 experiments, respectively. (C) Comparison of reversal potentials values. Dark and light red squares indicate equivalent I‐V experiments with NMDG (Nafree). Dotted and thick lines denote the absence (empty circles or squares) and presence (filled circles or squares) of 100 μM CNS4, respectively. Traces (Ai&ii, Bi&ii) represent the current response at −90 mv. N = 4 (4) & n = 7(7) for normal & low Ca^2+ assays respectively. Erev obtained from each oocyte with different agonists were compared in a pairwise manner. Paired student t‐test was performed to compare the data presented at Ci. Unpaired student's t‐test was performed to compare the difference in reversal potentials (triangles). *p < .05.

T1 sequence (O15399 28-1336, other chains not shown): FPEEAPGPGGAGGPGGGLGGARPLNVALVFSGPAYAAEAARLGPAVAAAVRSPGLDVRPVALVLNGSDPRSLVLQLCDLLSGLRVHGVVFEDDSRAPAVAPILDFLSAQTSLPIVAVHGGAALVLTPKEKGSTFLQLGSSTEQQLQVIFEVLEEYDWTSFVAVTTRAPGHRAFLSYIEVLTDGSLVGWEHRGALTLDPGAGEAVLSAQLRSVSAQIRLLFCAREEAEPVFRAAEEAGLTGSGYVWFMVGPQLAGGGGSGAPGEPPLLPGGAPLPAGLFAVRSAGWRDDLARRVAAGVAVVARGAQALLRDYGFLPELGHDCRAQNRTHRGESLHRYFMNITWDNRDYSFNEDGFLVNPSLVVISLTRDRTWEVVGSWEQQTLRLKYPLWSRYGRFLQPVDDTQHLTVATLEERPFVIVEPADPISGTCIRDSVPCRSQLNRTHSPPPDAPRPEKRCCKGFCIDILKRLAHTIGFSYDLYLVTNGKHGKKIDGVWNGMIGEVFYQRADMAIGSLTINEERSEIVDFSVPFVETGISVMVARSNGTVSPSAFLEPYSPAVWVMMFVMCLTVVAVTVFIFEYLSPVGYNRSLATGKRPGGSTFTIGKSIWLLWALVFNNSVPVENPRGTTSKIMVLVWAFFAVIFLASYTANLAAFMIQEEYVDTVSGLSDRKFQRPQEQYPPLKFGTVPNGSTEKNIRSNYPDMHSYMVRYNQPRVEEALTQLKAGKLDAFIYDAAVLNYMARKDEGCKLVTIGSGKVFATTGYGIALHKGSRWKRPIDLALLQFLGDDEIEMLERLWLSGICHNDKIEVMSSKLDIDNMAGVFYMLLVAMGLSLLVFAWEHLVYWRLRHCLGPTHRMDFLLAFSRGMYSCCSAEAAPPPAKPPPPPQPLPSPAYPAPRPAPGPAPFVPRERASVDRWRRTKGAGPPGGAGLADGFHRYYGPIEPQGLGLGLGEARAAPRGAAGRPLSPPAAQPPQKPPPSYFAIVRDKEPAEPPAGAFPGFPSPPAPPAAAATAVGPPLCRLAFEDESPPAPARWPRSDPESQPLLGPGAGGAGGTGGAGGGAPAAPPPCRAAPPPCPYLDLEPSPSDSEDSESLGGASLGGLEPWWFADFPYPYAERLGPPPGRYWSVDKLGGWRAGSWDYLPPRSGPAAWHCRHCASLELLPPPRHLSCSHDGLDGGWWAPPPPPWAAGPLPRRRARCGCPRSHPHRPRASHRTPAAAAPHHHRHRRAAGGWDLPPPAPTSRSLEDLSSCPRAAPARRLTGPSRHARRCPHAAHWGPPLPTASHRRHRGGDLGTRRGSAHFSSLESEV

With `O=C(NC(=S)N1CCCCC1c1cccnc1)c1ccc(F)cc1` (centres unmarked) [CNS4] the Peak current amplitude (GluN1/2AB receptors) was “–380.7 ± 36.61 pA”, the “Difference in reversal potential (∆Erev) between W and WO CNS4” value (from here on “Difference in reversal potential”) (GluN1/2D NMDA receptors; low Ca2+, Nafree, n = 6) was −6.22 ± 4.08 mV and the “Difference in reversal potential” value (GluN1/2D NMDA receptors; low Ca2+, with Na+, n = 7) was −26.55 ± 7.66 mV. For the same compound, the “Difference in reversal potential” value (GluN1/2D NMDA receptors; normal Ca2+, Nafree, n = 4) was −2.21 ± 2.14 mV, the “Difference in reversal potential” value (GluN1/2D NMDA receptors; normal Ca2+, with Na+, n = 4) was −0.22 ± 2.08 mV and the “Reversal potential (Erev)” value (GluN1/2D NMDA receptors; low Ca2+, with Na+, without CNS4 ‐44.02 ± 6.04, p = .013) was −70.57 ± 6.44 mV. For the same compound, the “Reversal potential (Erev)” value (GluN1/2D NMDA receptors; normal Ca2+, Nafree, without CNS4 −77.99 ± 1.77, p = .378) was −80.20 ± 2.54 mV and the “Reversal potential (Erev)” value (GluN1/2D NMDA receptors; normal Ca2+, with Na+, without CNS4 −61.43 ± 5.26, p = .919) was −61.66 ± 5.55 mV.
